{
  "source": "paper PMC10127588",
  "about": "(mBio, 2023)",
  "key": {"[1]": {"target": "T1, Mps1 (Pyricularia oryzae, UniProt G4N374)", "T1 sequence (G4N374 whole entry, looked up)": "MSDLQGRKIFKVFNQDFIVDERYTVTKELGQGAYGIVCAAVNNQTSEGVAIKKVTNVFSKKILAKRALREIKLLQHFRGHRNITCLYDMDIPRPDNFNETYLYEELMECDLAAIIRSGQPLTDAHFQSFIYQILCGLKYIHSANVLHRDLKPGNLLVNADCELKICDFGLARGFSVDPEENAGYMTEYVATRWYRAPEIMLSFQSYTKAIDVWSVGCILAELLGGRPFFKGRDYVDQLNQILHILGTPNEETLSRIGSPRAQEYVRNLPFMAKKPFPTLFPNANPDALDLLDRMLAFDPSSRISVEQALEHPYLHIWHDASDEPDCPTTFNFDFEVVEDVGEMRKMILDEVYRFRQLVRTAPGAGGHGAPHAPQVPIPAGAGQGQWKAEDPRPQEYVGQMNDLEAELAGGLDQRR", "type": "biochemical, Magnaporthe oryzae"}, "[2]": {"test_system": "M. oryzae conidia", "type": "cell-based, Magnaporthe oryzae"}, "[3]": {"target": "Pmk1 (Pyricularia oryzae, UniProt G4N0Z0)", "sequence (G4N0Z0 whole entry, looked up)": "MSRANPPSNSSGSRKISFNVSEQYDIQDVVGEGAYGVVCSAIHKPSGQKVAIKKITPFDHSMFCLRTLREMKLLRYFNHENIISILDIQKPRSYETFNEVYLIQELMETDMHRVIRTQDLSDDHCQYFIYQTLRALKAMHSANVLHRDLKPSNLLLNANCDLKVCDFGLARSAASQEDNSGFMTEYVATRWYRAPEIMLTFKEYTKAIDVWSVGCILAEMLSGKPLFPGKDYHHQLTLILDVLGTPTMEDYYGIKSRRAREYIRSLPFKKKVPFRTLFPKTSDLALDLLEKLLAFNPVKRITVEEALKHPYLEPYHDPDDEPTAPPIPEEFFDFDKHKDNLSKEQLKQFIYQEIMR", "type": "binding, Magnaporthe oryzae"}, "[4]": {"test_system": "M. oryzae", "parameters": "species or system Magnaporthe oryzae", "conditions": "in vivo"}, "[5]": {"test_system": "M. oryzae", "parameters": "species or system Magnaporthe oryzae", "conditions": "in vivo", "remark": "listed apart in the source"}, "[6]": {"target": "T1, Mps1", "assay": "biochemical", "type": "binding, Magnaporthe oryzae"}, "[7]": {"target": "T2, Mpk1 (Fusarium oxysporum, UniProt X0BN28)", "type": "biochemical"}, "[8]": {"test_system": "M. oryzae", "type": "cell-based"}, "[9]": {"target": "T2, Mpk1", "assay": "biochemical", "type": "binding"}, "[10]": {"test_system": "M. oryzae", "type": "cell-based", "remark": "listed apart in the source"}, "[11]": {"test_system": "M. oryzae conidia", "type": "cell-based, Magnaporthe oryzae", "remark": "listed apart in the source"}, "[12]": {"test_system": "M. oryzae", "type": "cell-based", "remark": "listed apart in the source"}, "[13]": {"test_system": "M. oryzae conidia", "conditions": "cited from earlier work"}, "[14]": {"target": "Itk", "conditions": "read-out: affinity; cited from earlier work"}, "[15]": {"target": "Src", "conditions": "read-out: affinity; cited from earlier work"}},
  "note": "Entries after “also recorded” stand apart in the source; their conditions may differ. Where two headings read alike, the source gives them in different places.",
  "data": [
    {"molecule": "CNC(=O)[C@H](Cc1c[nH]c2ccccc12)NC(=O)c1ccc2cncc(-c3cc(OC(F)(F)F)ccc3OC)c2n1", "note": "[A378-0]", "values": [
      {"measurement": "kinase activity of Mps1", "setting": "[1]", "result": "suppressed the kinase activity of Mps1"},
      {"measurement": "germination and appressorium formation of conidia", "setting": "[2]", "result": "could not inhibit the germination and appressorium formation"},
      {"measurement": "binding to Pmk1", "setting": "[3]", "result": "nonspecific binding"},
      {"measurement": "concentration at which conidia were completely nonpathogenic", "setting": "[4]", "result": 150, "unit": "µg/mL"},
      {"measurement": "concentration from which inhibition of M. oryzae virulence is observed", "setting": "[4]", "result": 50, "unit": "µg/mL"},
      {"measurement": "virulence on barley leaves", "setting": "[5]", "result": "exhibits inhibition of M. oryzae virulence on barley leaves"},
      {"measurement": "Kd", "setting": "[6]", "result": 69.2, "unit": "µM"},
      {"measurement": "kinase activity of Mpk1", "setting": "[7]", "result": "can inhibit the kinase activity of Mpk1"},
      {"measurement": "conidiation reduced to", "setting": "[8]", "result": "about 40%"},
      {"measurement": "Kd", "setting": "[9]", "result": 70.3, "unit": "µM"},
      {"measurement": "autolysis on the culture dish", "setting": "[10]", "result": "progressive autolysis was observed"},
      {"measurement": "appressorium penetration (penetration peg formation)", "setting": "[11]", "result": "did not form a penetration peg"},
      {"measurement": "sensitivity to lysing enzyme (cell wall integrity)", "setting": "[12]", "result": "readily reduced to spheroplasts"}
    ]},
    {"molecule": "CC(C)OC(=O)C(C(=O)OC(C)C)=C1SCCS1", "note": "[Isoprothiolane, diisopropyl 2-(1,3-dithiolan-2-ylidene)malonate]", "values": [
      {"measurement": "concentration that can inhibit appressorium penetration", "setting": "[13]", "result": 20, "unit": "µg/mL"}
    ]},
    {"molecule": "adenylyl imidodiphosphate [AMP-PNP]", "values": [
      {"measurement": "binding to Mps1", "setting": "[6]", "result": "does not interact with Mps1; also recorded: no binding was detected"},
      {"measurement": "Kd", "setting": "[6]; read-out: KD", "result": "< 500", "unit": "µM"},
      {"measurement": "Kd", "setting": "[14]", "result": 7900, "unit": "µM"},
      {"measurement": "Kd", "setting": "[15]", "result": 2540, "unit": "µM"}
    ]}
  ]
}
